Key:
[1] = system: synthesis of LTB4 in human whole blood; test: human whole blood LTB4 production inhibition assay; type: cell-based; details: Homo sapiens, heparinized human whole blood, calcimycin 20 μM; read-out: hWB LTB4 IC50
Description: Compounds are additionally tested in a human whole blood assay to determine their ability to inhibit the synthesis of LTB4 in a cellular system. Compounds are combined with heparinized human whole blood and incubated for 15 minutes at 37° C. Calcimycin (20 μM final, prepared in phosphate-buffered saline, pH 7.4) is then added and the mixture is incubated for another 30 minutes at 37° C. The samples are centrifuged for 5 min at low speed (1500×g) and the plasma layer is removed. Plasma LTB4 concentrations are then measured using an antibody-based homogenous time-resolved fluorescence method (CisBio, Bedford, Mass.).

[2] = target: T1, recombinant human FLAP protein (Homo sapiens, UniProt P20292); test: FLAP binding assay (Scintillation Proximity Assay, displacement of [125I]L-691,831); details: recombinant human FLAP membranes, [125I]L-691,831 probe; read-out: FLAP SPA IC50
T1 construct: made in house; host or cells: Sf9 insect cells (100,000 x g membrane fraction)
T1 sequence (P20292 1-161): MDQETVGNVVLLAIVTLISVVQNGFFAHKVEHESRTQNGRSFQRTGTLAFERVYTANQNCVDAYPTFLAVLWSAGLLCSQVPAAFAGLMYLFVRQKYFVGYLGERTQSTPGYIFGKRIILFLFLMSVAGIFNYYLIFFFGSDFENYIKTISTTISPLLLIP
Description: Cell pellets produced from sf9 insect cells expressing recombinant human FLAP protein are resuspended in buffer A [15 mM Tris-HCl (pH 7.5), 2 mM MgCl2, 0.3 mM EDTA, 1 mM PMSF]. The cells are lysed with a Dounce homogenizer and the material is centrifuged at 10,000×g for 10 minutes. The supernatant is then collected and centrifuged at 100,000×g for 60 minutes. To prepare membrane protein for an assay, an aliquot of the 100,000×g pellet is resuspended in 1 ml of buffer A, Dounce homogenized, and finally subjected to polytron mixing (30 seconds). Membrane protein (25 μl, 5 μg) is mixed with WGA SPA beads (Amersham) and stirred for 1 h.

Row | SMILES | IC50 [1] [µM] | IC50 [2] [µM]
1 | CN(C(=O)Cn1cc(-c2nc(C3(c4ccc(-c5cnc(N)nc5)cc4)CCC3)no2)cn1)C1CCOCC1 [Example 235, 2-[4-(3-{1-[4-(2-Amino-pyrimidin-5-yl)-phenyl]-cyclobutyl}-[1,2,4]oxadiazol-5-yl)-pyrazol-1-yl]-N-methyl-N-(tetrahydro-pyran-4-yl)-acetamide] | 0.067 | 0.0017
2 | Nc1ncc(-c2ccc(C3(c4noc(N5CCC[C@@H]5CO)n4)CCC3)cc2)cn1 [Example 289, [(R)-1-(3-{1-[4-(2-Amino-pyrimidin-5-yl)-phenyl]-cyclobutyl}-[1,2,4]oxadiazol-5-yl)-pyrrolidin-2-yl]-methanol] | 0.5 | 0.031
3 | Nc1ncc(-c2ccc(C3(c4noc(N5CCCC5)n4)CCC3)cc2)cn1 [Example 12, 5-{4-[1-(5-Pyrrolidin-1-yl-1,2,4-oxadiazol-3-yl)-cyclobutyl]-phenyl}-pyrimidin-2-ylamine] | 0.47 | 0.0083
4 | Cn1cc(-c2nc(C3(c4ccc(-c5ccc(C6CC6)nc5)cc4)CCC3)no2)cn1 [Example 248, 2-Cyclopropyl-5-(4-{1-[5-(1-methyl-1H-pyrazol-4-yl)-[1,2,4]oxadiazol-3-yl]-cyclobutyl}-phenyl)-pyridine] | > 5 | 0.73
5 | Cn1cc(-c2nc(C3(c4ccc(-c5cnc(N)nc5)cc4F)CCC3)no2)cn1 [Example 117, 5-(3-Fluoro-4-{1-[5-(1-methyl-1H-pyrazol-4-yl)-1,2,4-oxadiazol-3-yl]-cyclobutyl}-phenyl)-pyrimidin-2-ylamine] | 0.14 | 0.0026
6 | CCN(CC)C(=O)n1cc(-c2nc(C3(c4ccc(-c5cnc(N)nc5)cc4)CCC3)no2)cn1 [Example 211, 4-(3-{1-[4-(2-Amino-pyrimidin-5-yl)-phenyl]-cyclobutyl}-[1,2,4]oxadiazol-5-yl)-pyrazole-1-carboxylic acid diethylamide] | 0.089 | 0.003
7 | Nc1ncc(-c2ccc(C3(c4noc(N5CCC[C@H]5CO)n4)CCC3)cc2)cn1 [Example 288, [(S)-1-(3-{1-[4-(2-Amino-pyrimidin-5-yl)-phenyl]-cyclobutyl}-[1,2,4]oxadiazol-5-yl)-pyrrolidin-2-yl]-methanol] | 0.31 | 0.026
8 | Nc1ncc(-c2ccc(C3(c4noc(-c5cnn(CC(=O)NC6CC6)c5)n4)CCC3)cc2)cn1 [Example 132, 2-[4-(3-{1-[4-(2-Amino-pyrimidin-5-yl)-phenyl]-cyclobutyl}-1,2,4-oxadiazol-5-yl)-pyrazol-1-yl]-N-cyclopropyl-acetamide] | 0.069 | 0.0028
9 | Cn1cnc(-c2nc(C3(c4ccc(-c5cnc(N)cn5)cc4)CCC3)no2)c1 [Example 265] | 0.055 | 0.0062
10 | Nc1ncc(-c2ccc(C3(c4noc(-c5ccc(N6CCNCC6)cc5)n4)CCC3)cc2)cn1 [Example 104] | 0.099 | 0.0013
11 | Nc1ncc(-c2ccc(C3(c4noc(-c5nccnc5N)n4)CCC3)cc2)cn1 [Example 19, 5-(4-{1-[5-(3-Amino-pyrazin-2-yl)-1,2,4-oxadiazol-3-yl]-cyclobutyl}-phenyl)-pyrimidin-2-ylamine] | 1.4 | 0.011
12 | COc1cc(-c2nc(C3(c4ccc(-c5cnc(N)nc5)cc4)CCC3)no2)on1 [Example 33, 5-(4-{1-[5-(3-Methoxy-isoxazol-5-yl)-1,2,4-oxadiazol-3-yl]-cyclobutyl}-phenyl)-pyrimidin-2-ylamine] | 0.55 | 0.004
13 | COC1CCN(C(=O)Cn2cc(-c3nc(C4(c5ccc(-c6cnc(N)nc6)cc5)CCC4)no3)cn2)CC1 [Example 234, 2-[4-(3-{1-[4-(2-Amino-pyrimidin-5-yl)-phenyl]-cyclobutyl}-[1,2,4]oxadiazol-5-yl)-pyrazol-1-yl]-1-(4-methoxy-piperidin-1-yl)-ethanone] | 0.082 | 0.0035
14 | N#CC1CCN(c2nc(C3(c4ccc(-c5cnc(N)nc5)cc4)CCC3)no2)CC1 [Example 291, 1-(3-{1-[4-(2-Amino-pyrimidin-5-yl)-phenyl]-cyclobutyl}-[1,2,4]oxadiazol-5-yl)-piperidine-4-carbonitrile] | 0.21 | 0.019
15 | CSCCn1cc(-c2nc(C3(c4ccc(-c5cnc(N)nc5)cc4)CCC3)no2)cn1 [Example 230, 5-[4-(1-{5-[1-(2-Methylsulfanyl-ethyl)-1H-pyrazol-4-yl]-[1,2,4]oxadiazol-3-yl}-cyclobutyl)-phenyl]-pyrimidin-2-ylamine] | 0.064 | 0.0013
16 | Nc1ncc(-c2ccc(C3(c4noc([C@H]5CCCCN5)n4)CCC3)cc2)cn1 [Example 282, 5-{4-[1-((R)-5-Piperidin-2-yl-[1,2,4]oxadiazol-3-yl)-cyclobutyl]-phenyl}-pyrimidin-2-ylamine] | 1.1 | 0.026

Now from value to molecule:

Row | IC50 [1] [µM] | IC50 [2] [µM] | SMILES
17 | > 5 | 0.061 | Cc1ccc(C(=O)Nc2nc(C3(c4ccc(-c5cnc(N)nc5)cc4)CCC3)no2)cn1 [Example 178, N-(3-{1-[4-(2-Amino-pyrimidin-5-yl)-phenyl]-cyclobutyl}-1,2,4-oxadiazol-5-yl)-6-methyl-nicotinamide]
18 | 0.04 | 0.0011 | COCCNc1ccc(-c2nc(C3(c4ccc(-c5cnc(N)nc5)cc4)CCC3)no2)cn1 [Example 182, 5-[4-(1-{5-[6-(2-Methoxy-ethylamino)-pyridin-3-yl]-1,2,4-oxadiazol-3-yl}-cyclobutyl)-phenyl]-pyrimidin-2-ylamine]
19 | 0.17 | 0.0021 | Nc1ncc(-c2ccc(C3(c4noc(-c5ccc(O)c(Cl)c5)n4)CCC3)cc2)cn1 [Example 100, 4-(3-{1-[4-(2-Amino-pyrimidin-5-yl)-phenyl]-cyclobutyl}-1,2,4-oxadiazol-5-yl)-2-chloro-phenol]
20 | 0.045 | 0.0016 | Nc1cnc(-c2nc(C3(c4ccc(-c5cnc(N)nc5)cc4)CCC3)no2)cn1 [Example 193, 5-(4-{1-[5-(5-Amino-pyrazin-2-yl)-1,2,4-oxadiazol-3-yl]-cyclobutyl}-phenyl)-pyrimidin-2-ylamine]
21 | 0.71 | 0.012 | N#Cc1ccc(-c2nc(C3(c4ccc(-c5cnc(N)nc5)cc4)CCC3)no2)nc1 [Example 186, 6-(3-{1-[4-(2-Amino-pyrimidin-5-yl)-phenyl]-cyclobutyl}-1,2,4-oxadiazol-5-yl)-nicotinonitrile]
22 | 0.14 | 0.0026 | Nc1ncc(-c2ccc(C3(c4noc(-c5cc[nH]c(=O)c5)n4)CCC3)cc2)cn1 [Example 184, 4-(3-{1-[4-(2-Amino-pyrimidin-5-yl)-phenyl]-cyclobutyl}-1,2,4-oxadiazol-5-yl)-1H-pyridin-2-one]
23 | 0.19 | 0.0069 | CN(C)C(=O)c1ccc(-c2nc(C3(c4ccc(-c5cnc(N)nc5)cc4)CCC3)no2)cn1 [Example 29, 5-(3-{1-[4-(2-Amino-pyrimidin-5-yl)-phenyl]-cyclobutyl}-1,2,4-oxadiazol-5-yl)-pyridine-2-carboxylic acid dimethylamide]
24 | 0.81 | 0.0017 | Cc1ccc(-c2nc(C3(c4ccc(-c5cnc(N)nc5)cc4)CCCCC3)no2)cn1 [Example 154, 5-(4-{1-[5-(6-Methyl-pyridin-3-yl)-1,2,4-oxadiazol-3-yl]-cyclohexyl}-phenyl)-pyrimidin-2-ylamine]
25 | 0.35 | 0.0056 | Cn1cc(-c2nc(C3(c4ccc(-c5cnc(N)nc5)cc4)CCC3)no2)ccc1=O [Example 3, 5-(3-{1-[4-(2-Amino-pyrimidin-5-yl)-phenyl]-cyclobutyl}-1,2,4-oxadiazol-5-yl)-1-methyl-1H-pyridin-2-one]
26 | 0.76 | 0.0014 | Nc1ncc(-c2ccc(C3(c4noc(-c5ccc(NCCO)nn5)n4)CCC3)cc2)cn1 [Example 112, 2-[6-(3-{1-[4-(2-Amino-pyrimidin-5-yl)-phenyl]-cyclobutyl}-1,2,4-oxadiazol-5-yl)-pyridazin-3-ylamino]-ethanol]
27 | 0.45 | 0.006 | Cc1ncc(-c2nc(C3(c4ccc(-c5cnc(N)nc5)cc4)CCC3)no2)cn1 [Example 165, 5-(4-{1-[5-(2-Methyl-pyrimidin-5-yl)-1,2,4-oxadiazol-3-yl]-cyclobutyl}-phenyl)-pyrimidin-2-ylamine]
28 | 0.15 | 0.0047 | Nc1ncc(-c2ccc(C3(c4noc(-c5ccc(C(=O)N6CCC(O)C6)nc5)n4)CCC3)cc2)cn1 (stereo not shown) [Example 60, [5-(3-{1-[4-(2-Amino-pyrimidin-5-yl)-phenyl]-cyclobutyl]-1,2,4-oxadiazol-5-yl)-pyridin-2-yl]-(3-hydroxy-pyrrolidin-1-yl)-methanone]
29 | 0.52 | 0.071 | Nc1ncc(-c2ccc(C3(c4noc(NCCO)n4)CCC3)cc2)cn1 [Example 74, 2-(3-{1-[4-(2-amino-pyrimidin-5-yl)-phenyl]-cyclobutyl}-1,2,4-oxadiazol-5-ylamino)-ethanol]

— patent US8580829B2 (Boehringer Ingelheim International GmbH, priority 2010, dated 2013)
